# Measured values as given in PMC4906375, “Contribution of Amphipathicity and Hydrophobicity to the Antimicrobial Activity and Cytotoxicity of β-Hairpin Peptides” (ACS Infectious Diseases, 2016).
# Read-outs that look alike come from different tables or passages of the source. Residues, ends and D or L forms follow the SMILES beside them.
# Assays:
# [1] = Cytotoxicity, Alamar Blue (resazurin) assay; format: cell-based, human; conditions: human
# Experimental: Cytotoxicity to HEK293 and HepG2 cells was determined using the Alamar Blue (resazurin) assay,[55],[56] with 24 h of incubation and either 1 or 10% serum concentration. Full assay details are included in the Supporting Information.
# Cytotoxicity. Cytotoxicity to HEK293 and HepG2 cells was determined using the Alamar Blue (resazurin) assay,3, 4 For the assays supplemented with 1 % FBS as final concentration the cells were seeded one day prior to the assay (3,000 per 20 µL for HEK293 and 4,000 per 20 µL for HepG2) with DMEM + 2 % FBS. The compounds were prepared as described below, using DMEM with no FBS instead to give the final FBS concentration of 1 %.
# The highest concentration the compounds were tested was 300 µg/mL. A dilution series of 1:3 fold steps in DMEM (GIBCOPInvitrogen, cat. no. 11995P073) + 10 % FBS was created (concentration range of 600 µg/mL – 0.28 µg/mL), and 20 µL of these 2x concentrated compound dilutions were added in duplicates to wells of a black wall, clear bottom 384Pwells cell culture plate. For the assays with 1 % FBS the compounds in 0 % FBS were added to the existing cell plates in 2 % FBS. 200 µM Tamoxifen (Sigma T5648) served as negative control and in addition a serial dilution of tamoxifen, starting at 200 µM (74 µg/mL), was included as a dose response control (1 in 2 dilution series for tamoxifen). For the assay with 10 % FBS, HepG2 cells were seeded at 5000 cells per well, in a volume of 20 µL in DMEM medium + 10 % of FBS and added to the 20 µL of compound solution (total volume of 40 µL), resulting in a final compound concentration range of 300 µg/mL to 0.14 µg/mL.
# Cells were incubated together with the compounds for 20 h at 37 °C, 5 % CO2.
# After the incubation, 5 µL of 100 µM (25 µg/mL) resazurin dissolved in PBS (final concentration was approximately 11 µM) was added to each well. The plates were then incubated for 3 h at 37 °C, 5 % CO2. The fluorescence intensity was read using the TECAN Infinite M1000 PRO with excitation/emission 560/590. The data was analysed by Graph Pad Prism software. Results are presented as the average percentage of control ± SD for each set of duplicate wells using the following equation: Cell survival % = (FISAMPLE – FINegative/FIUNTREATED –FINegative)*100. (100 µg/mL tamoxifen was set as 0 % survival, media
# [2] = tested on: C. neoformans ATCC 208821; test: microbe, parasite or virus in culture; format: cell-based, Cryptococcus neoformans
# Experimental: Both antibacterial and antifungal MIC assays were performed by a broth microdilution plate based method as per CLSI guidelines for antimicrobial susceptibility testing.[53],[54] […] Full assay details are included in the Supporting Information with a full list of strains tested in Table S1.
# Antibacterial assay (Minimum Inhibitory Concentration [MIC]).
# MIC assay was performed by a broth microdilution plate based method as per CLSI guidelines for antimicrobial susceptibility testing of aerobic bacteria.1 Compounds were prepared at 1.28 mg/mL solution in water. The tested strains, Table S1, were cultured in Luria broth (LB) (In Vitro Technologies, USB75852), at 37 °C overnight. A sample of culture was then diluted 40Pfold in fresh Muller Hinton broth (MHB) (Bacto laboratories, 211443) and incubated at 37 °C for 1.5P2 h. The compounds were serially diluted twoPfold across the wells, with compound concentrations ranging from 0.015 µg/mL to 512 µg/mL, plated in duplicate. The resultant midPlog phase cultures were diluted to the final concentration of 1×10^6 CFU/mL, then 50 µL was added to each well of the compoundP containing 96Pwell plates (Corning 3641, NonPbinding Surface [NBS]), giving a final compound concentration range of 0.008 µg/mL to 256 µg/mL and 5x10^5 CFU/mL. All the plates were covered and incubated at 37 °C for 18 h. MICs were determined visually, being defined as the lowest concentration showing no visible growth. Resazurin was added at 0.001% final concentration to each well and incubated for 2 h before MICs were rePread for confirmation using the colour change from blue to pink to indicate wells containing viable cells. The resazurin assay was added in some wells where some form of precipitate was present in otherwise clear wells, making it difficult to ascertain which wells had visible […]
# Antifungal assay (Minimum Inhibitory Concentration [MIC]). MIC assay was performed by a broth microdilution plate based method as per CLSI guidelines for antimicrobial susceptibility testing.2 Fungi strains, Table S1, were cultured for 3 days on Yeast ExtractPPeptone Dextrose (YPD) (SigmaPAldrich, Y1500) agar at 30 °C. A yeast suspension of 1x10^6 to 5x10^6 CFU/mL was prepared from five colonies. These stock suspensions were diluted with Yeast Nitrogen Base (YNB) (Becton Dickinson, 233520) broth to a final concentration of 2.5 ×10^3 CFU/mL. All samples, compounds and standards were plated in 96Pwell plates (Corning 3641, NonPbinding Surface [NBS]), by adding 10 µL of 1.28 mg/mL stock solution to each well and 90 µL of media. Then, the samples were serial diluted (1:2) in 12 concentrations across the plate. The standard antifungal ranged from 256 […]
# µg/mL to 0.12 µg/mL and compounds from 128 µg/mL to 0.06 µg/mL with final volumes of 50 µL per well, plated in duplicate. Then, 50 µL of the fungi suspension that was previously prepared in YNB broth to the final concentration of 2.5×10^3 CFU/mL, was added to each well of the compoundPcontaining plates, giving a final standard compound concentration range of 128 µg/mL to 0.06 µg/mL and tested compound from 64 µg/mL to 0.03 µg/mL. Plates were covered and incubated at 35 °C for 24 h. Candida albicans MICs were determined by measuring the absorbance at OD530. For Cryptococcus neoformans 10 µL of 0.06 % resazurin were added to the 24 h incubated plates. Then, these plates were incubated for another 3 h.
# Cryptococcus neoformans MICs were determined by measuring the absorbance at OD570P600. […]
# [3] = HEK293 cells, HEK293, 1% FBS, read-out: cytotoxicity HEK293 1% FBS
# [4] = HEK293 cells, HEK293, 10% FBS, read-out: cytotoxicity HEK293 10% FBS
# [5] = HepG2 cells, HepG2, 1% FBS, read-out: cytotoxicity HepG2 1% FBS
# [6] = HepG2 cells, HepG2, 10% FBS, read-out: cytotoxicity HepG2 10% FBS
Structure (SMILES),"CC50 at 24 h [1, 3]","CC50 at 24 h [1, 4]","CC50 at 24 h [1, 5]","CC50 at 24 h [1, 6]","MIC ([2]; C. neoformans ATCC 208821, n = 4)",MIC ([2]; ATCC 208821)
CC[C@H](C)[C@H](NC(=O)[C@@H](NC(=O)[C@@H]1CCCN1C(=O)[C@@H](NC(=O)[C@@H]1CCCN1C(=O)[C@H](CCCCN)NC(=O)[C@H](CCCCN)NC(=O)[C@H](CO)NC(=O)CN)C(C)C)[C@@H](C)CC)C(=O)N[C@@H](Cc1ccc(O)cc1)C(=O)N[C@H]1CSSC[C@@H](C(=O)N[C@@H](CCC(N)=O)C(=O)N[C@@H](CCCNC(=N)N)C(=O)N[C@@H](CCSC)C(N)=O)NC(=O)[C@H](CCCCN)NC(=O)CNC(=O)[C@H]([C@@H](C)O)NC(=O)[C@H](CCCNC(=N)N)NC(=O)[C@H](CCCNC(=N)N)NC(=O)[C@H](CC(N)=O)NC1=O [thanatin],> 300 µg/mL,> 300 µg/mL,> 300 µg/mL,> 300 µg/mL,64 µg/mL,–
"CC(C)[C@@H]1NC(=O)[C@H](CCCNC(=N)N)NC(=O)[C@H](Cc2ccccc2)NC(=O)[C@@H](NC(=O)[C@H](Cc2c[nH]c3ccccc23)NC(=O)[C@H](CCCNC(=N)N)NC(=O)[C@@H](N)CCCNC(=N)N)CSSC[C@@H](C(=O)N[C@@H](CCCNC(=N)N)C(N)=O)NC(=O)[C@H](CCCCN)NC(=O)[C@H](CCCNC(=N)N)NC(=O)[C@H](Cc2ccc(O)cc2)NC(=O)[C@@H]2CSSC[C@H](NC1=O)C(=O)N[C@@H](Cc1ccc(O)cc1)C(=O)N[C@@H](CCCNC(=N)N)C(=O)NCC(=O)N[C@@H](Cc1ccccc1)C(=O)N2 [polyphemusin-1] (HELM PEPTIDE1{R.R.W.C.F.R.V.C.Y.R.G.F.C.Y.R.K.C.R.[am]}$PEPTIDE1,PEPTIDE1,4:R3-17:R3|PEPTIDE1,PEPTIDE1,8:R3-13:R3$$$V2.0)",36.6 ± 1.4 µg/mL,188.5 ± 1.1 µg/mL,36.5 ± 8.6 µg/mL,254 ± 14.2 µg/mL,–,0.06 µg/mL
"[H][C@]12CSSC[C@]([H])(NC(=O)[C@]([H])([C@@H](C)CC)NC(=O)CNC(=O)[C@H](CCCNC(=N)N)NC(=O)[C@H](Cc3ccc(O)cc3)NC1=O)C(=O)N[C@@H](Cc1ccc(O)cc1)C(=O)N[C@@H](CCCNC(=N)N)C(=O)N[C@@H](CCCNC(=N)N)C(=O)N[C@H](C(=O)N[C@@H](CCCNC(=N)N)C(N)=O)CSSC[C@H](NC(=O)[C@H](Cc1c[nH]c3ccccc13)NC(=O)[C@@H](N)CCCCN)C(=O)N[C@@H](Cc1ccccc1)C(=O)N[C@@H](CCCNC(=N)N)C(=O)N[C@@H](C(C)C)C(=O)N2 [tachyplesin-1] (HELM PEPTIDE1{K.W.C.F.R.V.C.Y.R.G.I.C.Y.R.R.C.R.[am]}$PEPTIDE1,PEPTIDE1,3:R3-16:R3|PEPTIDE1,PEPTIDE1,7:R3-12:R3$$$V2.0)",94.7 ± 1.1 µg/mL,> 300 µg/mL,65.7 ± 1.5 µg/mL,> 300 µg/mL,–,0.125 µg/mL
"CC(C)[C@@H]1NC(=O)CNC(=O)[C@H](CC(N)=O)NC(=O)[C@H](CCCNC(=N)N)NC(=O)[C@H](Cc2ccc(O)cc2)NC(=O)[C@H](C(C)C)NC(=O)[C@@H]2CSSC[C@H](NC(=O)[C@H](C(C)C)NC(=O)[C@H](CCCNC(=N)N)NC1=O)C(=O)N[C@@H](Cc1ccc(O)cc1)C(=O)N[C@@H](CCCNC(=N)N)C(=O)N[C@@H](CCCNC(=N)N)C(=O)N[C@H](C(=O)N[C@@H](CC(N)=O)C(=O)O)CSSC[C@H](NC(=O)[C@H](Cc1ccccc1)NC(=O)CN)C(=O)N[C@@H](Cc1c[nH]c3ccccc13)C(=O)N[C@@H](Cc1ccc(O)cc1)C(=O)N[C@@H](C(C)C)C(=O)N2 [arenicin-3] (HELM PEPTIDE1{G.F.C.W.Y.V.C.V.Y.R.N.G.V.R.V.C.Y.R.R.C.N}$PEPTIDE1,PEPTIDE1,3:R3-20:R3|PEPTIDE1,PEPTIDE1,7:R3-16:R3$$$V2.0)",105 ± 1.8 µg/mL,> 300 µg/mL,95.2 ± 4.1 µg/mL,> 300 µg/mL,–,8 µg/mL
